We go through 2 compounds from patent US20260315431A1, “NANOMATERIAL ENCAPSULATED BIOFILM INHIBITORS FOR DENTAL CARIES TREATMENT” (THE UAB RESEARCH FOUNDATION, priority 2023, published 2026).

Structures are written as SMILES. Where two headings read alike, the source gives them in different places.

By inhibition is commonly meant the percentage by which the read-out fell short of the control. A word on the IC50: it is the midpoint of a concentration-inhibition curve.

The subject of one assay is S. mutans UA159. Kind of assay: Biofilm inhibition, S. mutans UA159 (crystal violet, OD562). The format is cell-based, Streptococcus mutans. Particulars: for inhibition at 50 µM: UA159, 50 μM. How it is done: The bacterial strains, S. mutans UA159, S. gordonii DL1, and S. sanguinis SK36 were inoculated statically at 37° C. under 5% CO2 in Todd Hewitt Broth (THB) for 24 h. The cultures were then diluted with fresh THB (1:5) and reinoculated until optical density at 470 nm (OD470) reached 1. The optical density was read using BioTek 800TS microplate reader at 470 nm for bacterial growth and 562 nm for biofilm stained with crystal violet. Data was plotted in Graphpad Prism9.
Biofilm inhibition assays. Biofilm inhibition assays were performed in polystyrene microtiter 96 well plates. Stock solutions were prepared in chemically defined medium (CDM, JRH Biosciences, Lenexa, KS) with 2% sucrose, 1% bacteria cultures and various concentrations of the small molecule inhibitors to examine their activity against biofilm formation as described^69, 70. These stocks were assayed in 96 well plates in triplicate and incubated at 37° C. and 5% CO2 for 16 h. After reading optical density for bacterial growth, the plate was gently washed with water, dried, and stained with crystal violet, and then gently rinsed again with deionized water leaving the stained biofilm at the bottoms of the wells. Biofilms was dissolved in 200 μL of 30% acetic acid and absorbance at 562 nm was used read to determine biofilm biomass. Each assay was carried out at least in triplicate. Biofilm inhibitory concentration (IC50) of the compounds was determined by serial dilutions.
All bacterial strains (S. mutans UA159, S. gordonii DL1, and S. sanguinis SK36) were inoculated statically at 37° C. under 5% CO2 environment in Todd Hewitt Broth (THB) for 24 h^[61]. The cultures were then diluted with fresh THB (1:5) and reinoculated until the optical density at 470 nm reaches 1. The optical density was read using BioTek 800 TS absorbance reader at 470 nm for bacterial growth and 562 nm for biofilm stained with crystal violet. Data was plotted in Prism 10.0.2.
Biofilm inhibition assays were performed in polystyrene microtiter 96-well plates. Stock solutions were prepared in chemically defined medium (CDM) with 1% sucrose, 1% bacteria cultures and various concentrations of the small molecule inhibitors to examine their activity against biofilm formation as described^[62, 63]. These stocks were assayed in 96 well plates in triplicate and incubated at 37° C. and 5% CO2 for 16 h. After reading optical density for bacterial growth, the plate was washed, dried, and stained with 0.1% crystal violet which was again rinsed well with deionized water leaving the stained biofilm at the bottoms of the wells. This biofilm was dissolved in 200 μL of 30% acetic acid and absorbance at 562 nm was read to determine amount of biofilm formation. Each assay was carried out at least in triplicate. Biofilm inhibitor concentration (IC50) of the compounds was determined by serial dilutions from 0 μM-50 μM (1% DMSO).

Another assay relates to S. mutans UA159 biofilms. Kind of assay: Fluorescence microscopy of S. mutans UA159 biofilms (Syto-9, Cascade Blue-dextran, propidium iodide). The format is cell-based, Streptococcus mutans. Conditions: 16 h. How it is done:
FIGS. 1.6A-E illustrate the biofilm inhibitory activities of compound HA5. FIG. 1.6A illustrates that S. mutans UA159 were co-incubated with HA5 at various concentrations and biofilm formation was measured at OD562 using the crystal violet protocol. FIG. 1.6B illustrates Gtfs precipitated from S. mutans culture were co-incubated with HA5 at various concentrations and the glucan production was quantified using cascade blue staining and subsequent image processing with ImageJ. FIG. 1.6C illustrates representative fluorescence microscopy images of UA159 biofilms after 16 h of treatment with various concentrations of HA5. Bacterial cells were stained with Syto-9 (green, panel I); glucans were stained with Cascade Blue-dextran conjugated dye (blue, panel II); eDNA was stained with propidium iodide (red, panel III) and a merged image of all three staining images (panel IV). FIG. 1.6D illustrates S. mutans UA159, S. gordonii DL1 and S. sanguinis SK36 were co-incubated with HA5 at 50 μM and 100 μM and their growth were measured at OD470. FIG. 1.6E illustrates the chemical structure of HA5. Each of the biofilm, glucan and growth assays were conducted in triplicate and statistical significance was tested with one-way ANOVA. p<0.0001. […]
HA5 inhibits S. mutans UA159 biofilms, glucan production and eDNA levels. The antibiofilm activities of HA5 were further investigated by fluorescence microscopy imaging. […] In addition, propidium iodide was used to determine the presence of extracellular DNA (eDNA) in S. mutans biofilms. […] These findings reaffirm that HA5 inhibited S. mutans biofilms by preventing the synthesis of glucans and minimizing the presence of eDNA, two integral biofilm matrix elements crucial for S. mutans biofilm formation.
In addition, propidium iodide was used to determine the presence of extracellular DNA (eDNA) in S. mutans biofilms. […] These findings reaffirm that compound HA6 inhibited S. mutans biofilms by preventing the synthesis of glucans and minimizing the presence of eDNA, two integral biofilm matrix elements crucial for S. mutans biofilm formation.
Prior to in vivo evaluations, the biofilm inhibitory activities of PEHA5 were investigated. […] In addition, propidium iodide was used to determine the presence of eDNA in S. mutans biofilms. […] The effects of unloaded polymersome vesicles on S. mutans biofilm were compared with the control (1% DMSO) and the biofilm inhibitory activities of PEHA5 and HA5 at a single dose 50 μM concentration. […] In addition, the effect of PEHA5 on the planktonic growth of two commensal Streptococci, S. gordonii and S. Sanguinis were compared with the control (1% DMSO) and HA5 at a single treatment dose of 50 μM.
The biofilm inhibitory activities of PEHA6 were investigated. […] In addition, propidium iodide was used to determine the presence of eDNA in S. mutans biofilms. […] The effects of PEHA6 on S. mutans biofilm were compared with the control (1% DMSO) and the biofilm inhibitory activities of HA5 and HA6 side by side at a single dose, 50 μM concentration. […] In addition, the effect of PEHA6 on the planktonic growth of S. mutans was compared with HA5, HA6 at 50 μM.

Setting [1] is: Streptococcus mutans, UA159, read-out: Biofilm IC50.
Setting [2] is: Streptococcus mutans, S. mutans UA159 biofilm, read-out: Biofilm IC50.

Regarding `O=C1/C(=C/c2cc(O)c(O)cc2O)Oc2ccccc21` [HA5, 2-[(2′,4′,5′-Trihydroxyphenyl)methylidene]-2,3-dihydro-1-benzofuran-3-one], the “S. mutans biofilm inhibition” value with S. mutans UA159 (25 μM) came to 90%. Further, the inhibition at 50 µM in the assay with S. mutans UA159 (Streptococcus mutans) was > 95%. The 50% inhibitory concentration (IC50) in the assay with S. mutans UA159 (setting [1]) is 6.42 µM. For the same compound, the inhibition at 25 µM in the assay on S. mutans UA159 (Streptococcus mutans, UA159, read-out: S. mutans biofilm inhibition, 25 μM) was 80%. In the assay on S. mutans UA159 (setting [2]), the IC50 was determined as 6.42 µM. For the same compound, in the assay on S. mutans UA159 biofilms (5 μM), the “Syto-9 stained bacterial cells within biofilms” value is recorded as “significant reduction in biofilms”, the “eDNA (propidium iodide)” value is given as “noticeable reduction of eDNA” and the “glucans (Cascade Blue-dextran)” value is “significantly reduced”. In addition, in the assay on S. mutans UA159 biofilms (50 μM), the “Syto-9 stained bacterial cells within biofilms” value is “complete inhibition”, the “eDNA (propidium iodide)” value is “almost complete absence of eDNA” and the “glucans (Cascade Blue-dextran)” value is given as “no glucan formation was evident”.

Consider `O=C1/C(=C/c2cc(O)c(O)c(O)c2)Oc2ccccc21` [HA6, 2-[(3′,4′,5′-Trihydroxyphenyl)methylidene]-2,3-dihydro-1-benzofuran-3-one], for which, in the assay with S. mutans UA159 (Streptococcus mutans), the inhibition at 50 µM was > 95%. For the same compound, in the assay on S. mutans UA159 (setting [1]), the IC50 worked out at 18.9 µM. In the assay with S. mutans UA159 (setting [2]), the IC50 is 18.9 µM. Also, in the assay on S. mutans UA159 biofilms (15 μM), the “Syto-9 stained bacterial cells within biofilms” value was “significant reduction in biofilms”, the “eDNA (propidium iodide)” value is “noticeable reduction of eDNA” and the “glucans (Cascade Blue-dextran)” value is “significantly reduced”. Also, in the assay on S. mutans UA159 biofilms (30 μM), the “Syto-9 stained bacterial cells within biofilms” value is “complete inhibition”, the “eDNA (propidium iodide)” value is “almost complete absence of eDNA” and the “glucans (Cascade Blue-dextran)” value is listed as “no glucan formation was evident”.
